Source: article PMC5218480 (PLoS ONE, 2017)

Tested on: MV-4-11 cells
Experiment: Gene expression microarray analysis (Affymetrix PrimeView) and GSEA
Assay type: cell-based, human
Set-up: RFU PODN (11730768_x_at) / Fold change /veh PODN (11730768_x_at) / RFU LINC00158 (11744669_a_at) / Fold change /veh LINC00158 (11744669_a_at) / RFU DUSP10 (11751237_a_at) / Fold change /veh DUSP10 (11751237_a_at) / RFU ID3 (11757404_x_at) / Fold change /veh ID3 (11757404_x_at) / RFU PLEKHG5 (11737974_s_at) / Fold change /veh PLEKHG5 (11737974_s_at) / RFU LRRC4B (11730491_at) / Fold change /veh LRRC4B (11730491_at) / RFU GIMAP4 (11747438_a_at) / Fold change /veh GIMAP4 (11747438_a_at) / RFU KRT8 (11758183_x_at) / Fold change /veh KRT8 (11758183_x_at) / RFU CNN1 (11734310_a_at) / Fold change /veh CNN1 (11734310_a_at) / RFU VPS37D (11726825_at) / Fold change /veh VPS37D (11726825_at) / RFU C10orf10 (11716522_x_at) / Fold change /veh C10orf10 (11716522_x_at) / RFU KIR2DL2 /// KIR2DL4 /// KIR2DL5A /// KIR2DL5B /// KIR2DS1 /// KIR2DS2 /// KIR2DS3 /// KIR2DS4 /// KIR3DL3 /// KIR3DL3 /// KIR3DS1 (11738374_at) / Fold change /veh KIR2DL2 /// KIR2DL4 /// KIR2DL5A /// KIR2DL5B /// KIR2DS1 /// KIR2DS2 /// KIR2DS3 /// KIR2DS4 /// KIR3DL3 /// KIR3DL3 /// KIR3DS1 (11738374_at) / RFU C1QL1 (11718748_at) / Fold change /veh C1QL1 (11718748_at) / RFU TMPRSS4 (11747572_a_at) / Fold change /veh TMPRSS4 (11747572_a_at) / RFU HAMP (11756126_x_at) / Fold change /veh HAMP (11756126_x_at) / RFU RNFT2 (11725882_a_at) / Fold change /veh RNFT2 (11725882_a_at) / RFU NR4A2 (11747474_a_at) / Fold change /veh NR4A2 (11747474_a_at) / RFU ABCC12 (11746883_a_at) / Fold change /veh ABCC12 (11746883_a_at) / RFU TMEM136 (11760407_x_at) / Fold change /veh TMEM136 (11760407_x_at) / RFU CLDN22 /// WWC2 (11732394_at) / Fold change /veh CLDN22 /// WWC2 (11732394_at) / RFU HLA-DPB1 (11760878_x_at) / Fold change /veh HLA-DPB1 (11760878_x_at) / RFU SPINT1 (11716480_a_at) / Fold change /veh SPINT1 (11716480_a_at) / RFU GAP43 (11754022_s_at) / Fold change /veh GAP43 (11754022_s_at) / RFU A4GNT (11735810_at) / Fold change /veh A4GNT (11735810_at) / RFU PRB3 (11715151_x_at) / Fold change /veh PRB3 (11715151_x_at) / RFU TUBB4B (11761932_at) / Fold change /veh TUBB4B (11761932_at) / RFU CAPN14 (11732068_a_at) / Fold change /veh CAPN14 (11732068_a_at) / RFU TMCC2 (11721928_a_at) / Fold change /veh TMCC2 (11721928_a_at) / RFU IRGQ (11745062_a_at) / Fold change /veh IRGQ (11745062_a_at) / RFU FAM174B (11720279_a_at) / Fold change /veh FAM174B (11720279_a_at) / RFU TMPRSS4 (11748680_a_at) / Fold change /veh TMPRSS4 (11748680_a_at) / RFU FAM212B (11763350_a_at) / Fold change /veh FAM212B (11763350_a_at) / RFU PLEKHG5 (11743358_a_at) / Fold change /veh PLEKHG5 (11743358_a_at) / RFU ZSCAN30 (11745921_a_at) / Fold change /veh ZSCAN30 (11745921_a_at) / RFU CMKLR1 (11741424_a_at) / Fold change /veh CMKLR1 (11741424_a_at) / RFU LOC101060620 /// MAPK8IP1 (11723275_at) / Fold change /veh LOC101060620 /// MAPK8IP1 (11723275_at) / RFU SPTSSB (11747773_x_at) / Fold change /veh SPTSSB (11747773_x_at) / RFU PRSS12 (11739890_at) / Fold change /veh PRSS12 (11739890_at) / RFU BIN1 (11741810_x_at) / Fold change /veh BIN1 (11741810_x_at) / RFU WNT11 (11732464_a_at) / Fold change /veh WNT11 (11732464_a_at) / RFU C10orf10 (11716521_a_at) / Fold change /veh C10orf10 (11716521_a_at) / RFU C5orf56 (11738089_at) / Fold change /veh C5orf56 (11738089_at) / RFU CYB561 (11721691_x_at) / Fold change /veh CYB561 (11721691_x_at) / RFU ANKRD19P (11752326_a_at) / Fold change /veh ANKRD19P (11752326_a_at) / RFU OR2T12 /// OR2T33 /// OR2T8 (11738714_s_at) / Fold change /veh OR2T12 /// OR2T33 /// OR2T8 (11738714_s_at) / RFU VCAN (11748164_a_at) / Fold change /veh VCAN (11748164_a_at) / RFU JSRP1 (11732532_at) / Fold change /veh JSRP1 (11732532_at) / RFU KRTAP10-11 (11738290_x_at) / Fold change /veh KRTAP10-11 (11738290_x_at) / RFU MYO3A (11730013_a_at) / Fold change /veh MYO3A (11730013_a_at) / RFU EBF3 (11725865_a_at) / Fold change /veh EBF3 (11725865_a_at) / RFU CAMK2N1 (11719241_x_at) / Fold change /veh CAMK2N1 (11719241_x_at) / RFU C5orf56 (11738088_a_at) / Fold change /veh C5orf56 (11738088_a_at) / RFU OLFML3 (11715873_a_at) / Fold change /veh OLFML3 (11715873_a_at) / RFU LOC100653217 /// NTM (11731650_a_at) / Fold change /veh LOC100653217 /// NTM (11731650_a_at) / RFU MAPK11 (11762145_a_at) / Fold change /veh MAPK11 (11762145_a_at) / RFU FIZ1 (11724087_x_at) / Fold change /veh FIZ1 (11724087_x_at) / RFU OASL (11726364_x_at) / Fold change /veh OASL (11726364_x_at) / RFU SOX15 (11748057_x_at) / Fold change /veh SOX15 (11748057_x_at) / RFU CD79A (11719716_a_at) / Fold change /veh CD79A (11719716_a_at) / RFU HIST1H1D (11736915_at) / Fold change /veh HIST1H1D (11736915_at) / RFU CASKIN2 (11723855_a_at) / Fold change /veh CASKIN2 (11723855_a_at) / RFU LOC730098 (11760151_x_at) / Fold change /veh LOC730098 (11760151_x_at) / RFU OR4N2 (11742367_at) / Fold change /veh OR4N2 (11742367_at) / RFU PRRT2 (11749266_a_at) / Fold change /veh PRRT2 (11749266_a_at) / RFU SNX32 (11753110_a_at) / Fold change /veh SNX32 (11753110_a_at) / RFU CDHR5 (11726645_a_at) / Fold change /veh CDHR5 (11726645_a_at) / RFU RCAN1 (11760418_a_at) / Fold change /veh RCAN1 (11760418_a_at) / RFU FAM167A (11723789_a_at) / Fold change /veh FAM167A (11723789_a_at) / RFU FAM26E (11764081_at) / Fold change /veh FAM26E (11764081_at) / RFU ISYNA1 (11749810_s_at) / Fold change /veh ISYNA1 (11749810_s_at) / RFU ACY1 (11761880_at) / Fold change /veh ACY1 (11761880_at) / RFU 11764098_at / Fold change /veh 11764098_at / RFU SAMD14 (11745864_x_at) / Fold change /veh SAMD14 (11745864_x_at) / RFU NPB (11741838_a_at) / Fold change /veh NPB (11741838_a_at) / RFU TMPRSS6 (11731388_a_at) / Fold change /veh TMPRSS6 (11731388_a_at) / RFU KRTAP10-2 (11738614_at) / Fold change /veh KRTAP10-2 (11738614_at) / RFU ARHGAP8 /// PRR5-ARHGAP8 (11727945_x_at) / Fold change /veh ARHGAP8 /// PRR5-ARHGAP8 (11727945_x_at) / RFU KRTAP5-7 /// NADSYN1 (11734609_at) / Fold change /veh KRTAP5-7 /// NADSYN1 (11734609_at) / RFU RASL12 (11751679_a_at) / Fold change /veh RASL12 (11751679_a_at) / RFU CDKN2B (11736163_a_at) / Fold change /veh CDKN2B (11736163_a_at) / RFU PRF1 (11729649_at) / Fold change /veh PRF1 (11729649_at) / RFU, ZNF638 /// ZNF638-IT1 / Fold change vs veh, ZNF638 /// ZNF638-IT1 / RFU, PANK3 / Fold change vs veh, PANK3 / RFU, SH3YL1 / Fold change vs veh, SH3YL1 / RFU, ZEB2 / Fold change vs veh, ZEB2 / RFU, NRIP1 / Fold change vs veh, NRIP1 / RFU, PTTG1IP / Fold change vs veh, PTTG1IP / RFU, CAPN2 / Fold change vs veh, CAPN2 / RFU, MED14 / Fold change vs veh, MED14 / RFU, SNORA58 / Fold change vs veh, SNORA58 / RFU, C1orf63 / Fold change vs veh, C1orf63 / RFU, LRRFIP1 / Fold change vs veh, LRRFIP1 / RFU, NDUFAF7 / Fold change vs veh, NDUFAF7 / RFU, SLC12A2 / Fold change vs veh, SLC12A2 / RFU, IBTK / Fold change vs veh, IBTK / RFU, ESF1 / Fold change vs veh, ESF1 / Fold change vs veh, TMEM50B / RFU, TAOK1 / Fold change vs veh, TAOK1 / RFU, ACBD3 / Fold change vs veh, ACBD3 / RFU, TMA16 / Fold change vs veh, TMA16 / RFU, RWDD3 / Fold change vs veh, RWDD3 / RFU, BCAT1 / Fold change vs veh, BCAT1 / RFU, EDEM3 / Fold change vs veh, EDEM3 / RFU, TMEM33 / Fold change vs veh, TMEM33 / RFU, WDR75 / Fold change vs veh, WDR75 / RFU, AHCTF1 / Fold change vs veh, AHCTF1 / RFU, TFRC / Fold change vs veh, TFRC / RFU, ZDHHC17 / Fold change vs veh, ZDHHC17 / RFU, NOM1 / Fold change vs veh, NOM1 / RFU, ARL8B / Fold change vs veh, ARL8B / RFU, ZBTB11 / Fold change vs veh, ZBTB11 / RFU, TAMM41 / Fold change vs veh, TAMM41 / RFU, KIAA1704 /// LOC100996395 / Fold change vs veh, KIAA1704 /// LOC100996395 / RFU, ING1 / Fold change vs veh, ING1 / RFU, TRMT61B / Fold change vs veh, TRMT61B / RFU, FUBP3 / Fold change vs veh, FUBP3 / RFU, TP53 / Fold change vs veh, TP53 / RFU, TNKS2 / Fold change vs veh, TNKS2 / RFU, ZFP14 / Fold change vs veh, ZFP14 / RFU, ACTR2 / Fold change vs veh, ACTR2 / RFU, PPP3R1 / Fold change vs veh, PPP3R1 / RFU, PIK3R1 / Fold change vs veh, PIK3R1 / RFU, HNRNPA1 / Fold change vs veh, HNRNPA1 / RFU, RNF170 / Fold change vs veh, RNF170 / RFU, ZNF28 / Fold change vs veh, ZNF28 / RFU, RNGTT / Fold change vs veh, RNGTT / RFU, OGT / Fold change vs veh, OGT / RFU, BRD1 / Fold change vs veh, BRD1 / RFU, MARS / Fold change vs veh, MARS / RFU, ZNF655 / Fold change vs veh, ZNF655 / RFU, FAHD1 / Fold change vs veh, FAHD1 / RFU, BDP1 / Fold change vs veh, BDP1 / RFU, LRRCC1 / Fold change vs veh, LRRCC1 / RFU, ARID1A / Fold change vs veh, ARID1A / RFU, ZNF146 / Fold change vs veh, ZNF146 / RFU, ZNF330 / Fold change vs veh, ZNF330 / RFU, GPN3 / Fold change vs veh, GPN3 / RFU, C9orf123 / Fold change vs veh, C9orf123 / RFU, N4BP2L2 / Fold change vs veh, N4BP2L2 / RFU, ARFIP1 / Fold change vs veh, ARFIP1 / RFU, FAM179B / Fold change vs veh, FAM179B / RFU, BCL10 / Fold change vs veh, BCL10 / RFU, UHRF1BP1L / Fold change vs veh, UHRF1BP1L / RFU, BET1 / Fold change vs veh, BET1 / RFU, CNOT2 / Fold change vs veh, CNOT2 / RFU, ZNF268 / Fold change vs veh, ZNF268 / Fold change vs veh, ZNF507 / RFU, DGCR2 / Fold change vs veh, DGCR2 / RFU, WDSUB1 / Fold change vs veh, WDSUB1 / Fold change vs veh, HSP90B1 /// MIR3652 / RFU, ADSS / Fold change vs veh, ADSS / RFU, GK / Fold change vs veh, GK / RFU, ZNF148 / Fold change vs veh, ZNF148 / RFU, TAF9 / Fold change vs veh, TAF9 / RFU, SLC1A5 / Fold change vs veh, SLC1A5 / RFU, SLMO2 / Fold change vs veh, SLMO2 / RFU, ABCC4 / Fold change vs veh, ABCC4 / RFU, LOC101060439 /// RAP1B / Fold change vs veh, LOC101060439 /// RAP1B / RFU, RFX7 / Fold change vs veh, RFX7 / RFU, GTPBP10 / Fold change vs veh, GTPBP10 / RFU, CNEP1R1 / Fold change vs veh, CNEP1R1 / RFU, BIVM-ERCC5 /// ERCC5 / Fold change vs veh, BIVM-ERCC5 /// ERCC5 / RFU, ILF3 / Fold change vs veh, ILF3 / RFU 11762660_at / Fold change /veh 11762660_at / RFU VCAN (11757783_s_at) / Fold change /veh VCAN (11757783_s_at) / RFU DDX43 (11728927_at) / Fold change /veh DDX43 (11728927_at) / RFU KRT8 (11758188_x_at) / Fold change /veh KRT8 (11758188_x_at) / RFU NKD1 (11759106_at) / Fold change /veh NKD1 (11759106_at) / RFU SRD5A1 (11742802_a_at) / Fold change /veh SRD5A1 (11742802_a_at) / RFU TPSAB1 /// TPSB2 (11721975_s_at) / Fold change /veh TPSAB1 /// TPSB2 (11721975_s_at) / RFU GSTM3 (11746129_a_at) / Fold change /veh GSTM3 (11746129_a_at) / RFU IL23R (11737362_x_at) / Fold change /veh IL23R (11737362_x_at) / RFU TMEM51 (11727254_a_at) / Fold change /veh TMEM51 (11727254_a_at) / RFU PIWIL2 (11732686_x_at) / Fold change /veh PIWIL2 (11732686_x_at) / RFU ORM1 (11744905_x_at) / Fold change /veh ORM1 (11744905_x_at) / RFU CCDC152 (11743942_at) / Fold change /veh CCDC152 (11743942_at) / RFU ECM1 (11717891_a_at) / Fold change /veh ECM1 (11717891_a_at) / RFU IL23R (11748794_a_at) / Fold change /veh IL23R (11748794_a_at) / RFU TNFAIP8L3 (11732012_x_at) / Fold change /veh TNFAIP8L3 (11732012_x_at) / RFU MBOAT4 (11741988_at) / Fold change /veh MBOAT4 (11741988_at) / RFU 11764193_at / Fold change /veh 11764193_at / RFU TMEM53 (11763286_at) / Fold change /veh TMEM53 (11763286_at) / RFU MAGEB2 (11727129_at) / Fold change /veh MAGEB2 (11727129_at) / RFU TMEM200A (11744735_a_at) / Fold change /veh TMEM200A (11744735_a_at) / RFU CCDC152 (11751479_a_at) / Fold change /veh CCDC152 (11751479_a_at) / RFU FAM211A (11726209_a_at) / Fold change /veh FAM211A (11726209_a_at) / RFU RGS16 (11746705_a_at) / Fold change /veh RGS16 (11746705_a_at) / RFU VCAN (11755009_s_at) / Fold change /veh VCAN (11755009_s_at) / RFU RHOB (11743442_s_at) / Fold change /veh RHOB (11743442_s_at) / RFU RGS16 (11720943_a_at) / Fold change /veh RGS16 (11720943_a_at) / RFU RGS16 (11720944_at) / Fold change /veh RGS16 (11720944_at) / RFU, VPS4B / Fold change vs veh, VPS4B / RFU, CREB1 / Fold change vs veh, CREB1 / RFU, DNAJC13 / Fold change vs veh, DNAJC13 / RFU, GNAQ / Fold change vs veh, GNAQ / RFU, CDK5R1 / Fold change vs veh, CDK5R1 / RFU, ZRANB3 / Fold change vs veh, ZRANB3 / RFU, CUL4A / Fold change vs veh, CUL4A / RFU, CCNY / Fold change vs veh, CCNY / RFU, UFL1 / Fold change vs veh, UFL1 / RFU, COG3 / Fold change vs veh, COG3 / RFU, DIAPH2 / Fold change vs veh, DIAPH2 / RFU, SKA2 / Fold change vs veh, SKA2 / RFU, AFF3 / Fold change vs veh, AFF3 / RFU, LMF1 / Fold change vs veh, LMF1 / RFU, IPO11 / Fold change vs veh, IPO11 / RFU, DFFB / Fold change vs veh, DFFB / RFU, FOXP1 / Fold change vs veh, FOXP1 / RFU, CARD8 / Fold change vs veh, CARD8 / RFU, STRN3 / Fold change vs veh, STRN3 / RFU, ADK / Fold change vs veh, ADK / RFU, RASSF2 / Fold change vs veh, RASSF2 / RFU, WIPF1 / Fold change vs veh, WIPF1 / RFU, LARP1B / Fold change vs veh, LARP1B / RFU, RASA1 / Fold change vs veh, RASA1 / RFU, RB1 / Fold change vs veh, RB1 / RFU, PPFIA1 / Fold change vs veh, PPFIA1 / RFU, MAT2A / Fold change vs veh, MAT2A / RFU, CCT5 / Fold change vs veh, CCT5 / RFU, WDR92 / Fold change vs veh, WDR92 / RFU, CUX1 / Fold change vs veh, CUX1 / RFU, TTC7A / Fold change vs veh, TTC7A / RFU, TMEM135 / Fold change vs veh, TMEM135 / RFU, DEPTOR / Fold change vs veh, DEPTOR / RFU, CPM / Fold change vs veh, CPM / RFU, DNAJB6 / Fold change vs veh, DNAJB6 / RFU, CACNA2D3 / Fold change vs veh, CACNA2D3 / RFU, DTX4 / Fold change vs veh, DTX4 / RFU, TFCP2 / Fold change vs veh, TFCP2 / RFU, GMCL1 /// GMCL1P1 / Fold change vs veh, GMCL1 /// GMCL1P1 / RFU, AEBP2 / Fold change vs veh, AEBP2 / RFU, SNHG1 /// SNORD22 /// SNORD25 /// SNORD26 /// SNORD27 /// SNORD28 /// SNORD29 /// SNORD31 / Fold change vs veh, SNHG1 /// SNORD22 /// SNORD25 /// SNORD26 /// SNORD27 /// SNORD28 /// SNORD29 /// SNORD31 / Fold change (Aza/veh), C12orf56 (ProbeSet 11735607_a_at) / Fold change (ACY-1035/veh), C12orf56 (ProbeSet 11735607_a_at) / Fold change (Aza/veh), FGFR1OP (ProbeSet 11751329_s_at) / Fold change (ACY-1035/veh), FGFR1OP (ProbeSet 11751329_s_at) / Fold change (Aza/veh), VPS36 (ProbeSet 11739960_a_at) / Fold change (ACY-1035/veh), VPS36 (ProbeSet 11739960_a_at) / RFU SYPL1 (11715823_x_at) / Fold change /veh SYPL1 (11715823_x_at) / RFU IGFBP7 (11715501_s_at) / Fold change /veh IGFBP7 (11715501_s_at) / RFU REEP3 (11722064_at) / Fold change /veh REEP3 (11722064_at) / RFU IGLL1 (11728026_x_at) / Fold change /veh IGLL1 (11728026_x_at): dose or concentration left out as unconfirmed
Conditions: MV-4-11 cells, 48 hours

Compound: Nc1ccc(-c2cccs2)cc1NC(=O)c1ccc2c(c1)cc(C1CC1)n2CCN1CCOCC1 [ACY-1035]
- Fold change /veh TMEM136 (11760407_x_at): 1.12
